Results taken from the NIST ThermoML archive (doi:10.1016/j.fluid.2013.03.008).
Numbers after ± are expanded uncertainties.

Details: Liquid, Closed cell (Static) method

CCCCCCCCCCCCCC(=O)OCC [ethyl tetradecanoate]
Details | vapor or sublimation pressure [kPa]
392.17 K | 0.1 ± 0.01
398.52 K | 0.15 ± 0.01
404.27 K | 0.2 ± 0.01
410.95 K | 0.3 ± 0.01
416.1 K | 0.4 ± 0.01
419.65 K | 0.5 ± 0.01
425.69 K | 0.65 ± 0.02
430.55 K | 0.8 ± 0.02
434.91 K | 1 ± 0.02
439.1 K | 1.2 ± 0.03
443.82 K | 1.5 ± 0.03

CCCCCCCCCCCCCCCC(=O)OCC [ethyl hexadecanoate]
Details | vapor or sublimation pressure [kPa]
412.63 K | 0.1 ± 0.01
419.36 K | 0.15 ± 0.01
425.07 K | 0.2 ± 0.01
433.31 K | 0.3 ± 0.01
438.71 K | 0.4 ± 0.01
442.68 K | 0.5 ± 0.01
448.35 K | 0.65 ± 0.02
452.99 K | 0.8 ± 0.02
457.98 K | 1 ± 0.02
462.64 K | 1.2 ± 0.03
468.07 K | 1.5 ± 0.03
